Values after ≈ are worked out from the molar mass of the structure shown. Where two headings read alike, the source gives them in different places.
Legend:
Assay in all cases: in vitro antibacterial evaluation, MIC by broth dilution
Type in all cases: cell-based
Enterococcus sp. = conditions: broth dilution, 18 hours at 35° C.
Method: (§1) Methods for in vitro Antibacterial Evaluation (Table 1)
(§2) The minimum inhibitory concentration (MIC), the lowest concentration of the antibiotic which inhibits growth of the test organism, is determined by the broth dilution method using Muller-Hinton II […] (Baltimore Biological Laboratories) following the recommendations of the National Committee for Clinical Laboratory Standards [Methods for dilution antimicrobial susceptibility tests for bacteria that grow aerobically, approved standard M7-A2, National Committee for Clinical Laboratory Standards, Villanova, Pa.].
(§3) An inoculum level of 5×10^5 CFU/mL, and a range of antibiotic concentrations (64-0.06 μg/mL) is used. […] The test organisms include a spectrum of Gram-positive bacteria comprised of Staphylococcus sp., Streptococcus sp. and Enterococcus sp. These organisms include recent clinical isolates that are resistant to methicillin, penicillin and/or vancomycin.

Staphylococcus sp. = conditions: broth dilution, 18 hours at 35° C.
Method: as §1, §2, §3

Streptococcus sp. = conditions: broth dilution, 18 hours at 35° C.
Method: as §1, §2, §3

Escherichia coli = conditions: Escherichia coli, broth dilution, 18 hours at 35° C.
Method in brief: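 Broth dilution MIC per NCCLS M7-A2 in Mueller-Hinton II medium, inoculum 5×10^5 CFU/mL, antibiotic range 64-0.06 μg/mL. MIC taken as lowest concentration inhibiting growth.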

Cc1cccc(Oc2ccc(-c3nc4cc(C[C@@H]5NC(=O)[C@H](C(C)c6ccccc6)NC(=O)CNC(=O)[C@H](CO)NC(=O)[C@H](C(O)C6CNC(=N)N6)NC(=O)[C@H](C(O)C6CNC(=N)N6)NC5=O)ccc4o3)cc2)c1 (stereo partly drawn) [Example 41, Cyclo[3-[2-[4-(3-methylphenoxy)phenyl]benzoxazol-5-yl]alanyl-3-(2-iminoimidazolidin-4-yl)-seryl-3-(2-iminoimidazolidin-4-yl)serylserylglycyl-β-methylphenylalanyl]]
MIC Enterococcus faecalis (ATCC 29212) (Enterococcus sp.; strain ATCC 29212): 64 µg/mL (≈ 63 µM) | MIC Enterococcus faecalis (GC 2242) (Enterococcus sp.; strain GC 2242): 64 µg/mL (≈ 63 µM) | MIC Enterococcus faecium (GC 2243) (Enterococcus sp.; strain GC 2243): 64 µg/mL (≈ 63 µM) | MIC Enterococcus faecalis (GC 2691) (Enterococcus sp.; strain GC 2691): 64 µg/mL (≈ 63 µM) | MIC Enterococcus faecalis (GC 3059) (Enterococcus sp.; strain GC 3059): >64 µg/mL | MIC Enterococcus faecalis (GC 4552) (Enterococcus sp.; strain GC 4552): 64 µg/mL (≈ 63 µM) | MIC Enterococcus faecalis (GC 4553) (Enterococcus sp.; strain GC 4553): 64 µg/mL (≈ 63 µM) | MIC Enterococcus faecalis (GC 4554) (Enterococcus sp.; strain GC 4554): 64 µg/mL (≈ 63 µM) | MIC Enterococcus faecium (GC 4556) (Enterococcus sp.; strain GC 4556): 32 µg/mL (≈ 31.5 µM) | MIC Enterococcus faecium (GC 4557) (Enterococcus sp.; strain GC 4557): 64 µg/mL (≈ 63 µM) | MIC Enterococcus avium (GC 4558) (Enterococcus sp.; strain GC 4558): 64 µg/mL (≈ 63 µM) | MIC Enterococcus faecalis (GC 6189) (Enterococcus sp.; strain GC 6189): >64 µg/mL | MIC (Enterococcus sp.; strain ATCC 29212, read-out: MIC Enterococcus faecalis (ATCC 29212)): 64 µg/mL (≈ 63 µM) | MIC (Enterococcus sp.; strain GC 2242, read-out: MIC Enterococcus faecalis (GC 2242)): 64 µg/mL (≈ 63 µM) | MIC (Enterococcus sp.; strain GC 2243, read-out: MIC Enterococcus faecium (GC 2243)): 64 µg/mL (≈ 63 µM) | MIC (Enterococcus sp.; strain GC 2691, read-out: MIC Enterococcus faecalis (GC 2691)): 64 µg/mL (≈ 63 µM) | MIC (Enterococcus sp.; strain GC 3059, read-out: MIC Enterococcus faecalis (GC 3059)): > 64 µg/mL | MIC (Enterococcus sp.; strain GC 4552, read-out: MIC Enterococcus faecalis (GC 4552)): 64 µg/mL (≈ 63 µM) | MIC (Enterococcus sp.; strain GC 4553, read-out: MIC Enterococcus faecalis (GC 4553)): 64 µg/mL (≈ 63 µM) | MIC (Enterococcus sp.; strain GC 4554, read-out: MIC Enterococcus faecalis (GC 4554)): 64 µg/mL (≈ 63 µM) | MIC (Enterococcus sp.; strain GC 4556, read-out: MIC Enterococcus faecium (GC 4556)): 32 µg/mL (≈ 31.5 µM) | MIC (Enterococcus sp.; strain GC 4557, read-out: MIC Enterococcus faecium (GC 4557)): 64 µg/mL (≈ 63 µM) | MIC (Enterococcus sp.; strain GC 4558, read-out: MIC Enterococcus avium (GC 4558)): 64 µg/mL (≈ 63 µM) | MIC (Enterococcus sp.; strain GC 6189, read-out: MIC Enterococcus faecalis (GC 6189)): > 64 µg/mL | MIC (Staphylococcus sp.; Staphylococcus, strain GC 4543, read-out: MIC Staphylococcus aureus-SMITH (GC 4543)): > 64 µg/mL | MIC (Staphylococcus sp.; Staphylococcus, strain GC 4547, read-out: MIC Coagulase Negative Staphylococcus (GC 4547)): 64 µg/mL (≈ 63 µM) | MIC (Staphylococcus sp.; Staphylococcus, strain GC 4548, read-out: MIC Coagulase Negative Staphylococcus (GC 4548)): > 64 µg/mL | MIC (Staphylococcus sp.; Staphylococcus, strain GC 4549, read-out: MIC Coagulase Negative Staphylococcus (GC 4549)): 32 µg/mL (≈ 31.5 µM) | MIC (Staphylococcus sp.; Staphylococcus, strain GC 4551, read-out: MIC Coagulase Negative Staphylococcus (GC 4551)): 64 µg/mL (≈ 63 µM) | MIC (Staphylococcus sp.; strain ATCC 29213, read-out: MIC Staphylococcus aureus (ATCC 29213)): > 64 µg/mL | MIC (Staphylococcus sp.; strain GC 1131, read-out: MIC Staphylococcus aureus (GC 1131)): > 64 µg/mL | MIC (Staphylococcus sp.; strain GC 3051, read-out: MIC Staphylococcus aureus (GC 3051)): > 64 µg/mL | MIC (Staphylococcus sp.; strain GC 3053, read-out: MIC Staphylococcus aureus (GC 3053)): > 64 µg/mL | MIC (Staphylococcus sp.; strain GC 4541, read-out: MIC Staphylococcus aureus (GC 4541)): > 64 µg/mL | MIC (Staphylococcus sp.; strain GC 4542, read-out: MIC Staphylococcus aureus (GC 4542)): > 64 µg/mL | MIC (Staphylococcus sp.; strain GC 4544, read-out: MIC Staphylococcus aureus (GC 4544)): > 64 µg/mL | MIC (Staphylococcus sp.; strain GC 4545, read-out: MIC Staphylococcus aureus (GC 4545)): > 64 µg/mL | MIC Staphylococcus aureus (ATCC 29213) (Staphylococcus sp.; strain ATCC 29213): >64 µg/mL | MIC Staphylococcus aureus (GC 3051) (Staphylococcus sp.; strain GC 3051): >64 µg/mL | MIC Staphylococcus aureus (GC 3053) (Staphylococcus sp.; strain GC 3053): >64 µg/mL | MIC Staphylococcus aureus (GC 4541) (Staphylococcus sp.; strain GC 4541): >64 µg/mL | MIC Staphylococcus aureus (GC 4542) (Staphylococcus sp.; strain GC 4542): >64 µg/mL | MIC Staphylococcus aureus (GC 4544) (Staphylococcus sp.; strain GC 4544): >64 µg/mL | MIC Staphylococcus aureus (GC 4545) (Staphylococcus sp.; strain GC 4545): >64 µg/mL | MIC (Staphylococcus sp.; strain GC 4546, read-out: MIC Staphylococcus haemolyticus (GC 4546)): 64 µg/mL (≈ 63 µM) | MIC Streptococcus pneumoniae (ATCC 6301) (Streptococcus sp.; strain ATCC 6301): 64 µg/mL (≈ 63 µM) | MIC Streptococcus pneumoniae (GC 1894) (Streptococcus sp.; strain GC 1894): 64 µg/mL (≈ 63 µM) | MIC Streptococcus pyogenes (GC 4563) (Streptococcus sp.; strain GC 4563): 32 µg/mL (≈ 31.5 µM) | MIC Streptococcus agalactiae (GC 4564) (Streptococcus sp.; strain GC 4564): 64 µg/mL (≈ 63 µM) | MIC Streptococcus pneumoniae (GC 4565) (Streptococcus sp.; strain GC 4565): >64 µg/mL | MIC (Streptococcus sp.; strain ATCC 6301, read-out: MIC Streptococcus pneumoniae (ATCC 6301)): 64 µg/mL (≈ 63 µM) | MIC (Streptococcus sp.; strain GC 1894, read-out: MIC Streptococcus pneumoniae (GC 1894)): 64 µg/mL (≈ 63 µM) | MIC (Streptococcus sp.; strain GC 4563, read-out: MIC Streptococcus pyogenes (GC 4563)): 32 µg/mL (≈ 31.5 µM) | MIC (Streptococcus sp.; strain GC 4564, read-out: MIC Streptococcus agalactiae (GC 4564)): 64 µg/mL (≈ 63 µM) | MIC (Streptococcus sp.; strain GC 4565, read-out: MIC Streptococcus pneumoniae (GC 4565)): > 64 µg/mL | MIC (Escherichia coli; ATCC25922, strain ATCC 25922, read-out: MIC Escherichia coli (ATCC 25922)): > 64 µg/mL | MIC (Escherichia coli; strain GC 4559, read-out: MIC Escherichia coli (GC 4559)): > 64 µg/mL | MIC (Escherichia coli; strain GC 4560, read-out: MIC Escherichia coli (GC 4560)): > 64 µg/mL
